# According to patent US7029863B2, “Cell culture system for determining the cholesterol efflux potential for serum” (The Children's Hospital of Philadelphia, priority 2001, dated 2006):
# Experiments:
# Assay type in all cases: cell-based
# [1] = system: W138VA13 human embryonic lung fibroblasts; experiment: Cell cholesterol efflux to supplemented human serum, untreated W138VA13 fibroblasts; settings: human serum supplemented with increasing levels of the substance; 4 hour incubation; low SR-BI and ABCA1 expression; FIG. 1C
# Procedure: (§1) FIG. 1C is a graph of the percentage of efflux of cell cholesterol after a four hour incubation period of W138VA13 human embryonic lung fibroblasts with serum supplemented with HDL3 and serum supplemented with Apo AI. Numbers on X axis represent the fold increase of HDL3 or Apo AI with the X axis of 1 being the unsupplemented serum.
# (§2) FIGS. 1A–1F illustrate that the expression of SR-BI and ABCA1 independently in cultured cells can be used to detect cell cholesterol efflux to human sera with different levels of apolipoprotein AI, high density lipoprotein (HDL) or high density lipoprotein3 (HDL3). […] The control and supplemented serum samples were then diluted in tissue culture medium and incubated with the indicated cell systems; the efflux of cell cholesterol was measured after a 4 hour incubation period.
# FIG. 1C is a graph of the percentage of efflux of cell cholesterol after a four hour incubation period of W138VA13 human embryonic lung fibroblasts with serum supplemented with HDL3 and serum supplemented with Apo AI. FIG. 1C illustrates that W138VA13 human embryonic lung fibroblasts have low expression levels of both proteins and cell cholesterol efflux is unresponsive to either type of serum supplementation.
# [2] = system: W138VA13 human embryonic lung fibroblasts pretreated with 9-cis retanoic acid (9CRA) and 22 hydroxycholesterol to upregulated ABCA1; experiment: Cell cholesterol efflux to supplemented human serum, W138VA13 fibroblasts with ABCA1 upregulated; settings: human serum supplemented with increasing levels of the substance; 4 hour incubation; FIG. 1E
# Procedure: (§3) Numbers on X axis represent the fold increase of HDL3 or Apo AI with the X axis of 1 being the unsupplemented serum.
# as §2
# [3] = system: W138VA13 human embryonic lung fibroblasts transfected with SR-BI with ABCA1 upregulated; experiment: Cell cholesterol efflux to supplemented human serum, W138VA13 fibroblasts with SR-BI transfected and ABCA1 upregulated; settings: human serum supplemented with increasing levels of the substance; 4 hour incubation; FIG. 1F
# Procedure: as §3, §2
# [4] = system: J774 mouse macrophages treated with cAMP to upregulate the expression of ABCA1; experiment: Cell cholesterol efflux to supplemented human serum, J774 macrophages with ABCA1 upregulated by cAMP; settings: human serum supplemented with increasing levels of the substance; 4 hour incubation; FIG. 1B
# Procedure: as §1, with “1B” for “1C”, “J774 mouse macrophages treated with cAMP to upregulate the expression of ABCA1” for “W138VA13 human embryonic lung fibroblasts”
# For example, in one embodiment of the present invention, an assay to quantitate the contribution of ABCA1 to cellular cholesterol efflux uses a sample of cells, such as transformed mouse macrophages which are grown in monolayers and prelabeled with ^3H-cholesterol. […] The release of the radiolabeled cholesterol is determined after an appropriate incubation time ranging from 1 to 12 hours. The ABCA1 contribution to efflux is determined by subtracting the efflux obtained in ABCA1 negative cultures from that obtained from the ABCA1 positive cultures.
# as §2, with “period. […]” for “period.”
substance,measurement,setting,value
Apo AI: apolipoprotein AI added to human serum in increasing levels,percentage of efflux of cell cholesterol,[1],unresponsive
same,percentage of efflux of cell cholesterol,[2],enhanced
same,efflux of cell cholesterol,[3],enhanced efflux
same,percentage of efflux of cell cholesterol,[4],enhanced cholesterol efflux
